In the experiment the test system is Mycobacterium tuberculosis. Briefly: Resistance factor, ratio of MIC for antimycobacterial activity against Mycobacterium tuberculosis H37Rv over expressing InhA to MIC for antimycobacterial activity against Mycobacterium tuberculosis H37Rv transfected with pMV261 empty vector. The experiment is classed as functional.
On to `CC(C)[C@H]1OC(=O)[C@H](C)[C@H](O)[C@H](Cc2cccnc2)NC(=O)[C@@H](NC(=O)c2ncccc2O)[C@@H](C)OC1=O`, for which the Ratio came to 8.

For the compound `CC[C@H]1OC(=O)[C@H](C)[C@H](O)[C@H](Cc2cccnc2)NC(=O)[C@@H](NC(=O)c2ncccc2O)[C@@H](C)OC1=O`, the Ratio was above 4.

Regarding `C[C@H]1OC(=O)[C@@H](Cc2ccccc2)OC(=O)[C@H](C)[C@H](O)[C@H](Cc2cccnc2)NC(=O)[C@H]1NC(=O)c1ncccc1O`, the Ratio is recorded as above 4.

`CC[C@H](C)[C@H]1OC(=O)[C@H](C)[C@H](O)[C@H](Cc2cccnc2)NC(=O)[C@@H](NC(=O)c2ncccc2O)[C@@H](C)OC1=O`: the Ratio is listed as 1.

Take `NNC(=O)c1ccncc1` [ISONIAZID]: the Ratio was 31.

The values above are taken from ChEMBL document CHEMBL4376876 (J Med Chem, 2020).
